Measurements published in PubChem BioAssay AID248 (DTP/NCI, 2004).
Values joined by “and” are separate entries in the source; they are usually repeats but may differ in a detail not shown here. Equal values may be shown once. Toxic doses and inconclusive results are not listed. Cut-off read from the data, not from the text of the source: active = T/C of 150% or more; inactive = T/C below 125%.

Test system: L1210 leukemia ip in BDF1 mice, survival T/C
Assay: NCI In Vivo Anticancer Drug Screen. Data for tumor model L1210 Leukemia (intraperitoneal) in B6D2F1 (BDF1) mice
Conditions: endpoint: mean survival time, higher = longer survival
Summary of the method: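 Tumor was transplanted into mice, which were then dosed with test compound or vehicle alone. Survival was recorded for each group, and the treated figure was expressed relative to the control figure.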

[1] = dose: 100.0 mg/kg/injection, schedule: Q04DX003 (ip), vehicle: saline with Tween-80
[2] = dose: 50.0 mg/kg/injection, schedule: Q01DX001 (ip), vehicle: carboxymethylcellulose (CMC)
[3] = dose: 100.0 mg/kg/injection, schedule: Q01DX001 (ip), vehicle: carboxymethylcellulose (CMC)
[4] = dose: 200.0 mg/kg/injection, schedule: Q01DX001 (ip), vehicle: carboxymethylcellulose (CMC)
[5] = dose: 400.0 mg/kg/injection, schedule: Q01DX001 (ip), vehicle: carboxymethylcellulose (CMC)
[6] = dose: 100.0 mg/kg/injection, schedule: Q04DX003 (ip), vehicle: saline
[7] = dose: 200.0 mg/kg/injection, schedule: Q04DX003 (ip), vehicle: saline
[8] = dose: 400.0 mg/kg/injection, schedule: Q04DX003 (ip), vehicle: saline
[9] = dose: 25.0 mg/kg/injection, schedule: Q01DX009 (ip), vehicle: saline with Tween-80
[10] = dose: 50.0 mg/kg/injection, schedule: Q01DX009 (ip), vehicle: saline with Tween-80
[11] = dose: 100.0 mg/kg/injection, schedule: Q01DX001 (ip), vehicle: saline
[12] = dose: 100.0 mg/kg/injection, schedule: Q04DX003 (ip), vehicle: Klucel (hydroxypropylcellulose) (HPC)
[13] = dose: 200.0 mg/kg/injection, schedule: Q04DX003 (ip), vehicle: Klucel (hydroxypropylcellulose) (HPC)
[14] = dose: 400.0 mg/kg/injection, schedule: Q04DX003 (ip), vehicle: Klucel (hydroxypropylcellulose) (HPC)
[15] = dose: 100.0 mg/kg/injection, schedule: Q01DX009 (ip), vehicle: Klucel (hydroxypropylcellulose) (HPC)
[16] = dose: 200.0 mg/kg/injection, schedule: Q01DX009 (ip), vehicle: Klucel (hydroxypropylcellulose) (HPC)
[17] = dose: 400.0 mg/kg/injection, schedule: Q01DX009 (ip), vehicle: Klucel (hydroxypropylcellulose) (HPC)
[18] = dose: 200.0 mg/kg/injection, schedule: Q01DX001 (ip), vehicle: saline
[19] = dose: 400.0 mg/kg/injection, schedule: Q01DX001 (ip), vehicle: saline
[20] = dose: 50.0 mg/kg/injection, schedule: Q01DX001 (ip), vehicle: saline

Measured: T/C

CN(C)CCCN1c2ccc(O)cc2Sc2ccc(Cl)cc21
inactive: dose: 3.1 mg/kg/injection, schedule: Q01DX009 (ip), vehicle: other 90 % of control | dose: 6.2 mg/kg/injection, schedule: Q01DX009 (ip), vehicle: other 94 % of control | dose: 12.5 mg/kg/injection, schedule: Q01DX009 (ip), vehicle: other 94 % of control | dose: 25.0 mg/kg/injection, schedule: Q01DX009 (ip), vehicle: other 97 % of control | dose: 50.0 mg/kg/injection, schedule: Q04DX003 (ip), vehicle: saline with Tween-80 103 % of control | [1] 103 % of control

CS(=O)(=O)SCc1ccc([N+](=O)[O-])cc1
inactive: dose: 15.0 mg/kg/injection, schedule: Q01DX001 (ip), vehicle: carboxymethylcellulose (CMC) 114 % of control | dose: 30.0 mg/kg/injection, schedule: Q01DX001 (ip), vehicle: carboxymethylcellulose (CMC) 101 % of control | dose: 60.0 mg/kg/injection, schedule: Q01DX001 (ip), vehicle: carboxymethylcellulose (CMC) 97 % of control

CC12CCC(C1)C(C)(C)C2OC(=O)c1ccccc1C(=O)O (configuration not stated)
inactive: [2] 103 % of control | [3] 113 % of control | [4] 102 % of control | [5] 103 % of control

COC(=O)CCN(C(=O)c1ccccc1)c1ccccc1C(=O)OC
inactive: dose: 75.0 mg/kg/injection, schedule: Q01DX001 (ip), vehicle: saline 98 % of control | dose: 150.0 mg/kg/injection, schedule: Q01DX001 (ip), vehicle: saline 93 % of control | dose: 300.0 mg/kg/injection, schedule: Q01DX001 (ip), vehicle: saline 86 % of control

CC(=O)Nc1cc2c3ccccc3ccc2c2ccccc12
inactive: [3] 87 % of control

NNc1ccc(-c2ccc(NN)cc2)cc1
inactive: dose: 200.0 mg/kg/injection, schedule: Q04DX003 (ip), vehicle: saline with Tween-80 95 % of control | dose: 400.0 mg/kg/injection, schedule: Q04DX003 (ip), vehicle: saline with Tween-80 98 % of control

CC(C)CN(CC(C)C)[N+](=O)[O-]
inactive: dose: 100.0 mg/kg/injection, schedule: Q01DX001 (ip), vehicle: Klucel (hydroxypropylcellulose) (HPC) 97 % of control | dose: 200.0 mg/kg/injection, schedule: Q01DX001 (ip), vehicle: Klucel (hydroxypropylcellulose) (HPC) 114 % of control | dose: 400.0 mg/kg/injection, schedule: Q01DX001 (ip), vehicle: Klucel (hydroxypropylcellulose) (HPC) 97 % of control

CC1(C)NC(=S)NC1=S
inactive: dose: 100.0 mg/kg/injection, schedule: Q01DX009 (ip), vehicle: alcohol 103 % of control | dose: 100.0 mg/kg/injection, schedule: Q04DX002 (ip), vehicle: Klucel (hydroxypropylcellulose) (HPC) 89 % of control | dose: 200.0 mg/kg/injection, schedule: Q01DX009 (ip), vehicle: alcohol 101 % of control | dose: 200.0 mg/kg/injection, schedule: Q04DX002 (ip), vehicle: Klucel (hydroxypropylcellulose) (HPC) 89 % of control | dose: 400.0 mg/kg/injection, schedule: Q04DX002 (ip), vehicle: Klucel (hydroxypropylcellulose) (HPC) 96 % of control

COC1CC(OC(=O)c2ccc(C)cc2)C(COC(=O)c2ccc(C)cc2)O1 (configuration not stated)
inactive: [6] 98 % of control | [7] 102 % of control | [8] 98 % of control

O=[N+]([O-])c1ccc(/C=N/c2nn[nH]n2)cc1 (tested in a mixture with another compound)
inactive: [6] 98 % of control | [7] 100 % of control | [8] 96 % of control

CS(=O)(=O)c1nc(Cl)nc(C(Cl)(Cl)Cl)c1Cl
inactive: [9] 101 % of control | [10] 95 % of control

Nc1cc(C(=O)Nc2cccc(C3=NCCCN3)c2)ccc1C(=O)Nc1cccc(C2=NCCCN2)c1
inactive: dose: 0.17 mg/kg/injection, schedule: Q01DX Z (ip), vehicle: water 100 % of control | dose: 0.34 mg/kg/injection, schedule: Q01DX Z (ip), vehicle: water 90 % of control | dose: 0.68 mg/kg/injection, schedule: Q01DX Z (ip), vehicle: water 88 % of control

[O-][n+]1cc(-c2ccccc2)cc2ccccc21
inactive: [11] 96 % of control

COC(=O)C1C2OC3C(OC(=O)C31)C2Br (configuration not stated)
inactive: [12] 91 % of control | [13] 96 % of control | [14] 102 % of control

CC(=O)Nc1cc(C)c(C)cc1[N+](=O)[O-]
inactive: [15] 102 % of control | [12] 96 % of control | [16] 100 % of control | [13] 102 % of control | [17] 105 % of control | [14] 103 % of control

O=C1/C(=C\c2cccc3ccccc23)CS(=O)(=O)C/C1=C/c1cccc2ccccc12
inactive: [11] 95 % of control | [18] 94 % of control | [19] 94 % of control

O=C(Nc1ccc(Br)c2c(NC(=O)c3ccccc3)ccc(Br)c12)c1ccccc1
inactive: [20] 110 % of control | [11] 101 % of control | [18] 95 % of control | [19] 98 % of control

COc1ccc(NC(=O)Nc2cccc([N+](=O)[O-])c2OC)cc1
inactive: dose: 25.0 mg/kg/injection, schedule: Q04DX002 (ip), vehicle: saline with Tween-80 93 % of control | dose: 50.0 mg/kg/injection, schedule: Q04DX002 (ip), vehicle: saline with Tween-80 96 % of control | dose: 100.0 mg/kg/injection, schedule: Q04DX002 (ip), vehicle: saline with Tween-80 89 % of control

Cn1c(=O)c2[nH]c(CCCc3nc4c([nH]3)c(=O)n(C)c(=O)n4C)nc2n(C)c1=O
inactive: dose: 25.0 mg/kg/injection, schedule: Q01DX001 (ip), vehicle: carboxymethylcellulose (CMC) 93 % of control | [2] 105 % of control | [3] 98 % of control | [4] 101 % of control

O=C1CCCC/C1=C/c1ccccc1Cl
inactive: [15] 97 % of control | [12] 104 % of control | [16] 105 % of control | [13] 104 % of control | [17] 100 % of control | [14] 97 % of control

CCCCCCC(=O)N(CCCC)CCCC
inactive: [3] 109 % of control | dose: 100.0 mg/kg/injection, schedule: Q01DX009 (ip), vehicle: carboxymethylcellulose (CMC) 100 % of control and 91 % of control | dose: 100.0 mg/kg/injection, schedule: Q04DX003 (ip), vehicle: carboxymethylcellulose (CMC) 103 % of control | [4] 95 % of control | dose: 200.0 mg/kg/injection, schedule: Q01DX009 (ip), vehicle: carboxymethylcellulose (CMC) 96 % of control and 104 % of control | dose: 200.0 mg/kg/injection, schedule: Q04DX003 (ip), vehicle: carboxymethylcellulose (CMC) 94 % of control | [5] 98 % of control | dose: 400.0 mg/kg/injection, schedule: Q04DX003 (ip), vehicle: carboxymethylcellulose (CMC) 92 % of control

CC(=O)OCC1OC(n2cnc([N+](=O)[O-])c2C#N)C(OC(C)=O)C1OC(C)=O (configuration not stated)
inactive: [20] 102 % of control | [11] 108 % of control | [18] 102 % of control | [19] 92 % of control

CCOc1cc(/C=N/NC(=S)NC23CC4CC(CC(C4)C2)C3)ccc1O
inactive: dose: 75.0 mg/kg/injection, schedule: Q01DX001 (ip), vehicle: acetone 101 % of control | dose: 150.0 mg/kg/injection, schedule: Q01DX001 (ip), vehicle: acetone 92 % of control | dose: 300.0 mg/kg/injection, schedule: Q01DX001 (ip), vehicle: acetone 94 % of control

COC(=O)C1=CCC(C2(C)CO2)CC1 (configuration not stated)
inactive: [12] 104 % of control | [13] 109 % of control | [14] 104 % of control

NC(CO)C(O)c1ccc([N+](=O)[O-])cc1 (configuration not stated)
inactive: [15] 101 % of control | [12] 91 % of control | [16] 101 % of control | [13] 100 % of control | [17] 101 % of control | [14] 98 % of control

O=C1C2C(=C3CCCCC3)C=CC2C1(c1ccccc1)c1ccccc1 (configuration not stated)
inactive: [12] 101 % of control | [13] 95 % of control | [14] 94 % of control

CC(C#N)(Nc1ccccc1)c1ccc(Br)cc1 (configuration not stated)
inactive: [12] 95 % of control | [13] 95 % of control | [14] 95 % of control

CN1CCCC1CCNc1nc(C(Cl)(Cl)Cl)nc2ccc(Cl)cc12 (configuration not stated)
inactive: [9] 106 % of control | [10] 96 % of control | dose: 100.0 mg/kg/injection, schedule: Q01DX009 (ip), vehicle: saline with Tween-80 106 % of control | [1] 88 % of control
